Results: patent publication US20250230193A1, “CYCLIC COMPOUND HAVING SELECTIVE KRAS INHIBITORY EFFECT ON HRAS AND NRAS” (CHUGAI SEIYAKU KABUSHIKI KAISHA, priority 2022, published 2025)

Tests used:
[1] = target: GDP-bound HRAS wild-type protein (Homo sapiens, UniProt P01112); assay: Binding to HRAS by surface plasmon resonance (SPR), Single Cycle Kinetics; conditions: SPR, GDP-bound HRAS wild-type vs GDP-bound KRAS wild-type
[2] = target: GDP-bound NRAS wild-type protein (Homo sapiens, UniProt P01111); assay: Binding to NRAS by surface plasmon resonance (SPR), Single Cycle Kinetics; conditions: SPR, GDP-bound NRAS wild-type vs GDP-bound KRAS wild-type
GDP-bound NRAS wild-type protein, sequence (P01111 whole entry): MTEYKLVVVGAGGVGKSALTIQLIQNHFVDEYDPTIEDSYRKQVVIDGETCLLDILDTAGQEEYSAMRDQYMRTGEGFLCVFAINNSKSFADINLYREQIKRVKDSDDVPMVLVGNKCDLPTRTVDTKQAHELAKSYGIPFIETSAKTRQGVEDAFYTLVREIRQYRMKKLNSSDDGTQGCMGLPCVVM

GDP-bound HRAS wild-type protein, sequence (P01112 whole entry): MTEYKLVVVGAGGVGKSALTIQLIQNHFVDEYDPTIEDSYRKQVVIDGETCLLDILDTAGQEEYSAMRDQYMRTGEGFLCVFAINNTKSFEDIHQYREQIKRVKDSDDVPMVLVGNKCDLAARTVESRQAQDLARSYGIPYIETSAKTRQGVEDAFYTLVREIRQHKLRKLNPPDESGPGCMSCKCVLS

SMILES	HRAS/KRAS (ratio of KD value with respect to HRAS to KD value with respect to KRAS) [1]	NRAS/KRAS (ratio of KD value with respect to NRAS to KD value with respect to KRAS) [2]
CCCOC[C@H]1C(=O)N[C@@H]([C@@H](C)CC)C(=O)N2CCC[C@H]2C(=O)N(C)[C@H]2C/C=C\CCN(C2=O)[C@@H](Cc2ccc(C)cc2)C(=O)N(C)CC(=O)N[C@@H](CCc2ccc(C(F)(F)F)c(OC)c2)C(=O)N2C[C@@H](C)C[C@H]2C(=O)NC2(CC(C)(C)C2)C(=O)N(C)[C@@H](C2CCCC2)C(=O)N(C)[C@H](C(=O)N(C)CC)CC(=O)N1C [PP2429]	B (a compound having 3 or more and less than 10 is denoted as B)	A (a compound having 10 or more and less than 20 is denoted as A)
CCCOC[C@H]1C(=O)N[C@@H]([C@@H](C)CC)C(=O)N2CCC[C@H]2C(=O)N(C)[C@H]2C/C=C\CCN(C2=O)[C@@H](Cc2ccc(C)cc2)C(=O)N(C)CC(=O)N[C@@H](CCc2cc(F)c(C(F)(F)F)c(F)c2)C(=O)N2C[C@H](C)C[C@H]2C(=O)NC2(CC(C)(C)C2)C(=O)N(C)[C@@H](C2CCCC2)C(=O)N(C)[C@H](C(=O)N(C)CC)CC(=O)N1C [PP2430]	A (a compound having 10 or more and less than 20 is denoted as A)	AA (a compound having 20 or more is denoted as AA)
CCCOC[C@H]1C(=O)N[C@@H]([C@@H](C)OCC)C(=O)N2CCC[C@H]2C(=O)N(C)[C@H]2C/C=C\CCN(C2=O)[C@@H](Cc2ccc(C)cc2)C(=O)N(C)CC(=O)N[C@@H](CCc2ccc(C(F)(F)F)c(OC)c2)C(=O)N2C[C@@H](C)C[C@H]2C(=O)NC2(CC(C)(C)C2)C(=O)N(C)[C@@H](C2CCCC2)C(=O)N(C)[C@H](C(=O)N(C)CC)CC(=O)N1C [PP2431]	A (a compound having 10 or more and less than 20 is denoted as A)	A (a compound having 10 or more and less than 20 is denoted as A)
CCCOC[C@H]1C(=O)N[C@@H]([C@@H](C)OCC)C(=O)N2CCC[C@H]2C(=O)N(C)[C@H]2C/C=C\CCN(C2=O)[C@@H](Cc2ccc(C)cc2)C(=O)N(C)CC(=O)N[C@@H](CCc2cc(F)c(C(F)(F)F)c(F)c2)C(=O)N2C[C@H](OCC)C[C@H]2C(=O)NC2(CC(C)(C)C2)C(=O)N(C)[C@@H](C2CCCC2)C(=O)N(C)[C@H](C(=O)N(C)CC)CC(=O)N1C [PP2432]	A (a compound having 10 or more and less than 20 is denoted as A)	A (a compound having 10 or more and less than 20 is denoted as A)
CCOC[C@H]1C(=O)N[C@@H]([C@@H](C)OCC)C(=O)N2CCC[C@H]2C(=O)N(C)[C@H]2C/C=C\CCN(C2=O)[C@@H](Cc2ccc(C)cc2)C(=O)N(C)CC(=O)N[C@@H](CCc2ccc(C(F)(F)F)c(OC)c2)C(=O)N2C[C@@H](C)C[C@H]2C(=O)NC2(CC(C)(C)C2)C(=O)N(C)[C@@H](C2CCCC2)C(=O)N(C)[C@H](C(=O)N(C)CC)CC(=O)N1C [PP2433]	A (a compound having 10 or more and less than 20 is denoted as A)	AA (a compound having 20 or more is denoted as AA)
CCCO[C@H](C)[C@@H]1NC(=O)[C@H](COCC)N(C)C(=O)C[C@@H](C(=O)N(C)CC)N(C)C(=O)[C@H](C2CCCC2)N(C)C(=O)C2(CC(C)(C)C2)NC(=O)[C@@H]2C[C@@H](OCC)CN2C(=O)[C@H](CCc2cc(F)c(C(F)(F)F)c(F)c2)NC(=O)CN(C)C(=O)[C@H](Cc2ccc(C)cc2)N2CC/C=C\C[C@@H](C2=O)N(C)C(=O)[C@@H]2CCCN2C1=O [PP2436]	A (a compound having 10 or more and less than 20 is denoted as A)	A (a compound having 10 or more and less than 20 is denoted as A)
CC[C@H](C)[C@@H]1NC(=O)[C@H](COC)N(C)C(=O)C[C@@H](C(=O)N(C)CC)N(C)C(=O)[C@H](C2CCCC2)N(C)C(=O)C2(CC(C)(C)C2)NC(=O)[C@@H]2C[C@H](C)CN2C(=O)[C@H](CCc2cc(F)c(C(F)(F)F)c(F)c2)NC(=O)CN(C)C(=O)[C@H](Cc2ccc(C)cc2)N2CC/C=C\C[C@@H](C2=O)N(C)C(=O)CN(C)C1=O [PP2437]	A (a compound having 10 or more and less than 20 is denoted as A)	A (a compound having 10 or more and less than 20 is denoted as A)
CCO[C@@H]1C[C@H]2C(=O)NC3(CC(C)(C)C3)C(=O)N(C)[C@@H](C(CC)CC)C(=O)N(C)[C@H](C(=O)N(C)C)CC(=O)N(C)[C@@H](COC)C(=O)N[C@@H]([C@@H](C)CC)C(=O)N(C)CC(=O)N(C)[C@H]3C/C=C\CCN(C3=O)[C@@H](CC3CCC(F)(F)CC3)C(=O)N(C)CC(=O)N[C@@H](CCc3ccc(C(F)(F)F)c(OC)c3)C(=O)N2C1 [PP2438]	A (a compound having 10 or more and less than 20 is denoted as A)	A (a compound having 10 or more and less than 20 is denoted as A)
CCOC[C@H]1C(=O)N[C@@H]([C@@H](C)CC)C(=O)N(C)CC(=O)N(C)[C@H]2C/C=C\CCN(C2=O)[C@@H](Cc2ccc(C)cc2)C(=O)N(C)CC(=O)N[C@@H](CCc2cc(F)c(C(F)(F)F)c(F)c2)C(=O)N2C[C@@H](C)C[C@H]2C(=O)NC2(CC(C)(C)C2)C(=O)N(C)[C@@H](C2CCCC2)C(=O)N(C)[C@H](C(=O)N(C)C)CC(=O)N1C [PP2439]	A (a compound having 10 or more and less than 20 is denoted as A)	A (a compound having 10 or more and less than 20 is denoted as A)
CCO[C@@H]1C[C@H]2C(=O)NC3(CC(C)(C)C3)C(=O)N(C)[C@@H](C(CC)CC)C(=O)N(C)[C@H](C(=O)N(C)C)CC(=O)N(C)[C@@H](COC)C(=O)N[C@@H]([C@@H](C)CC)C(=O)N(C)CC(=O)N(C)[C@H]3C/C=C\CCN(C3=O)[C@@H](CC3CCC(F)(F)CC3)C(=O)N(C)CC(=O)N[C@@H](CCc3cc(F)c(C(F)(F)F)c(F)c3)C(=O)N2C1 [PP2440]	A (a compound having 10 or more and less than 20 is denoted as A)	A (a compound having 10 or more and less than 20 is denoted as A)
CC[C@H](C)[C@@H]1NC(=O)[C@H](COC)N(C)C(=O)C[C@@H](C(=O)N(CC)CC)N(C)C(=O)[C@H](C2CCCC2)N(C)C(=O)C2(CC(C)(C)C2)NC(=O)[C@@H]2C[C@H](C)CN2C(=O)[C@H](CCc2ccc(C(F)(F)F)c(OC)c2)NC(=O)CN(C)C(=O)[C@H](Cc2ccc(C)cc2)N2CC/C=C\C[C@@H](C2=O)N(C)C(=O)CN(C)C1=O [PP2441]	A (a compound having 10 or more and less than 20 is denoted as A)	AA (a compound having 20 or more is denoted as AA)
CCC(CC)[C@H]1C(=O)N(C)[C@H](C(=O)N(C)C)CC(=O)N(C)[C@@H](COC)C(=O)N[C@@H]([C@@H](C)CC)C(=O)N(C)CC(=O)N(C)[C@H]2C/C=C\CCN(C2=O)[C@@H](CC2CCC(F)(F)CC2)C(=O)N(C)CC(=O)N[C@@H](CCc2ccc(C(F)(F)F)c(OC)c2)C(=O)N2C[C@@H](C)C[C@H]2C(=O)NC2(CC(C)(C)C2)C(=O)N1C [PP2442]	A (a compound having 10 or more and less than 20 is denoted as A)	A (a compound having 10 or more and less than 20 is denoted as A)
CCO[C@@H]1C[C@H]2C(=O)NC3(CC(C)(C)C3)C(=O)N(C)[C@@H](C(CC)CC)C(=O)N(C)[C@H](C(=O)N(C)C)CC(=O)N(C)[C@@H](COC)C(=O)N[C@@H]([C@@H](C)CC)C(=O)N(C)CC(=O)N(C)[C@H]3C/C=C\CCN(C3=O)[C@@H](CC3CCC(F)(F)CC3)C(=O)N(C)CC(=O)N[C@@H](CCc3ccc(C(F)(F)F)c(Cl)c3)C(=O)N2C1 [PP2444]	A (a compound having 10 or more and less than 20 is denoted as A)	A (a compound having 10 or more and less than 20 is denoted as A)
CCOC[C@H]1C(=O)N[C@@H]([C@@H](C)CC)C(=O)N(C)CC(=O)N(C)[C@H]2C/C=C\CCN(C2=O)[C@@H](Cc2ccc(C)cc2)C(=O)N(C)CC(=O)N[C@@H](CCc2ccc(C(F)(F)F)c(OC)c2)C(=O)N2C[C@H](OCC)C[C@H]2C(=O)NC2(CC(C)(C)C2)C(=O)N(C)[C@@H](C2CCCC2)C(=O)N(C)[C@H](C(=O)N(C)CC)CC(=O)N1C [PP2445]	B (a compound having 3 or more and less than 10 is denoted as B)	A (a compound having 10 or more and less than 20 is denoted as A)
CCOC[C@H]1C(=O)N[C@@H]([C@@H](C)CC)C(=O)N(C)CC(=O)N(C)[C@H]2C/C=C\CCN(C2=O)[C@@H](CC2CCC(F)(F)CC2)C(=O)N(C)CC(=O)N[C@@H](CCc2ccc(C(F)(F)F)c(OC)c2)C(=O)N2C[C@H](OCC)C[C@H]2C(=O)NC2(CC(C)(C)C2)C(=O)N(C)[C@@H](C(CC)CC)C(=O)N(C)[C@H](C(=O)N(C)C)CC(=O)N1C [PP2446]	A (a compound having 10 or more and less than 20 is denoted as A)	A (a compound having 10 or more and less than 20 is denoted as A)
